In paper PMC8803428, “Pharmacokinetics of Ginsenoside Rb1, Rg3, Rk1, Rg5, F2, and Compound K from Red Ginseng Extract in Healthy Korean Volunteers” (Evidence-based Complementary and Alternative Medicine : eCAM, 2022):
Like-named read-outs stand apart in the source and are kept apart here.

Assays:
[1] = Stability of the ginsenosides in human plasma (QC samples, LC-MS/MS method validation); assay type: in vitro ADME
Protocol: The LC-MS/MS method was validated to determine selectivity, lower limits of quantification (LLOQ), accuracy, precision, recovery, matrix effect, and stability, according to the guideline for validating the bioanalytical method. The selectivity of the method was evaluated by comparison of blank plasma from six different men to the corresponding spiked plasma sample at the level of LLOQ to investigate the potential interferences at the LC chromatographic conditions for ginsenoside analytes and IS. The signal-to-noise ratio (S/N) of the LLOQ sample was at least five times the response compared to the blank samples. Each calibration curve was constructed by plotting the peak area ratio (y) of the analyte to IS against the spiked concentrations (x) of each analyte. Linearity was assessed by weighted (1/x^2) least squares regression analysis. The LLOQ was defined as the lowest concentration on the calibration curve with an S/N ratio of 10, where the precision and accuracy bias were within ±20% by five replicate analyses. The intra- and interday precision and accuracy assessments were performed at four concentrations with five replicates on the same day and three consecutive days, respectively. The acceptance criterion recommended by the guideline of precision and the accuracy was ±15% of the nominal concentration. The recovery of the seven ginsenosides was determined at three QC levels with three replicates by comparing the peak areas of plasma extracts spiked with analytes before extraction with those of the postextraction spiked samples at the same concentration. The matrix effects were investigated by comparing the peak areas of the analytes dissolved in the pretreated blank plasma with the corresponding concentrations prepared in the reconstitution solution with three replicates. The stability of the analytes in human plasma was assessed by analyzing five replicates of plasma samples at low, medium, and high QC levels under four different conditions. Short-term stability was evaluated after the exposure of QC samples to room temperature for 19 h before processing and analysis. The freeze and thaw stability was tested after three repeated cycles of thawing at room temperature and freezing at approximately −70°C. The long-term stability was assessed after storage at approximately −70°C for 50 days. The post-preparative stability was examined after the exposure of processed samples at ambient temperature (stored in an HPLC autosampler) for 34 h.

[2] = set-up: method as in earlier work; settings: after oral Korean Red ginseng extract, ref 25 (Kim et al.); cited from earlier work
[3] = Pharmacokinetics of ginsenosides in plasma after a single oral dose of RG or BRG capsules in healthy Korean men (LC-MS/MS); assay type: in vivo, human; settings: for AUC(0-t): read-out: AUC(0–t); for AUC(0-inf): read-out: AUC(0–∞)
Excerpt: This study was designed as a randomized, open-label, single-dose, crossover study with washout every 1 week to evaluate the pharmacokinetics and safety of ginsenosides. Subjects were randomly assigned to either the RG or BRG group during the first period of the study (Figure 2). After 1 week of the washout period, other products that were not received in the first period were provided. All enrolled subjects were hospitalized at Bestian Clinical Trial Center on the day before taking RG or BRG. Subjects were provided regular meals, and additional food intake was restricted after the meal. The next day, the subjects who had maintained the fasting state for 10 h took the capsules corresponding to 5 g of RG and BRG orally. Water was restricted for 1 h before and after intake, and food intake was restricted for 4 h after administration. After 4 h, all subjects received a standardized meal. In addition, lying down or sleeping was prohibited for 8 h after oral administration. Blood samples (5 mL) were collected before dosing and at each time point (0, 0.5, 1, 2, 4, 6, 8, 10, 12, and 24 h) after dosing. All blood samples were collected in heparin-treated tubes. The blood samples were promptly centrifuged at 3,000 rpm for 10 min at 4°C, and the plasma samples obtained were stored in a deep freezer at −70 ± 10°C until assay.
All analyses were performed using an Agilent 1200 series HPLC system (Agilent) with a Luna Phenyl-Hexyl column (2.0 × 150 mm, 5 μm; Phenomenex, CA, USA). The mobile phase comprised water (solvent A) and acetonitrile (solvent B) containing 0.1% formic acid. The flow rate of the mobile phase was 0.25–0.35 mL/min. The initial condition of 70% solvent A was set to 5% solvent A over 15 min. The content of ginsenosides in human plasma was measured using an API 5500 mass spectrometer (AB Sciex, Foster City, CA, USA) capable of multiple reaction monitoring (MRM). The parent-daughter ion pairs monitored were 845.5 ⟶ 799.6 for Rg1, 1153.6 ⟶ 1107.5 for Rb1, 829.4 ⟶ 783.5 for Rg3, and F2, 811.4 ⟶ 161.0 for Rg5 and Rk1, 667.4 ⟶ 161.0 for CK, and 825.4 ⟶ 779.3 for digoxin as an IS in the negative ion mode. Nitrogen gas was used in the nebulizer and the collision cell. The ion spray voltage was set to 5500 V.
Standard plasma samples were prepared such that each ginsenoside was in the concentration range of 0.5–100 ng/mL; 10 μL of a standard mixture of six kinds of ginsenosides (Rg1, Rb1, Rg5 + Rk1, F2, and CK) was added to 90 μL of blank human plasma. Rg3 was prepared in the concentration range of 0.2–40 ng/mL. Standard plasma samples (100 μL) were added to 200 μL of methanol containing 50 ng/mL digoxin, an IS. These were mixed for 1 min and then centrifuged at 12,000 rpm for 5 min at 4°C. Then, 100 μL of the supernatant was transferred to an LC vial, and 10 μL was injected into the LC-MS/MS system. Plasma samples stored at −70°C were thawed at room temperature. Samples for LC-MS/MS analysis were pretreated in the same manner as standard plasma samples.
Plasma concentrations of seven ginsenosides were calculated from calibration curves by calculating the ratio of the peak area of the test substance to the peak area of the IS. The following pharmacokinetic parameters were measured using Phoenix WinNonlin 6.3 (Pharsight Co, CA, USA): time to reach maximum observed plasma drug concentration (Tmax), maximum observed plasma drug concentration (Cmax), area under the plasma drug concentration-time curve from 0 h to the final measured time (AUC(0–t)), area under the plasma drug concentration–time curve from 0 h to infinity (AUC(0–∞)), and terminal elimination half-life (t1/2).

[4] = male, human, plasma, po, 5 g, plasma, after single oral 5 g BRG, n = 13, mean ± SD
[5] = male, human, plasma, po, 5 g, plasma, after single oral 5 g RG, n = 13, mean ± SD

CC(C)=CCC[C@](C)(O[C@@H]1O[C@H](CO[C@@H]2O[C@H](CO)[C@@H](O)[C@H](O)[C@H]2O)[C@@H](O)[C@H](O)[C@H]1O)[C@H]1CC[C@]2(C)[C@@H]1[C@H](O)C[C@@H]1[C@@]3(C)CC[C@H](O[C@@H]4O[C@H](CO)[C@@H](O)[C@H](O)[C@H]4O[C@@H]4O[C@H](CO)[C@@H](O)[C@H](O)[C@H]4O)C(C)(C)[C@@H]3CC[C@]12C [Rb1, ginsenoside Rb1]
Freeze-thaw stability, concentration found ([1]; human plasma, 3 cycles, 1.5 ng/mL): 98.65 ± 0.66%
Freeze-thaw stability, concentration found ([1]; human plasma, 3 cycles, 80 ng/mL): 100.70 ± 2.36%
Short-term stability, concentration found ([1]; human plasma, 19 h at room temperature, 1.5 ng/mL): 98.19 ± 1.40%
Short-term stability, concentration found ([1]; human plasma, 19 h at room temperature, 80 ng/mL): 96.93 ± 5.41%
Long-term stability, concentration found ([1]; human plasma, 50 days at -70℃, 1.5 ng/mL): 102.01 ± 1.78%
Long-term stability, concentration found ([1]; human plasma, 50 days at -70℃, 80 ng/mL): 105.06 ± 2.73%
Autosampler stability, concentration found ([1]; processed plasma samples, 34 h at ambient temperature, 1.5 ng/mL): 97.98 ± 3.55%
Autosampler stability, concentration found ([1]; processed plasma samples, 34 h at ambient temperature, 80 ng/mL): 100.35 ± 5.32%
Cmax [2]: 3.94 ± 1.97 ng/mL
detection in plasma at the initial time point (0 h) of the second treatment period ([3]; after 1 week washout): did not detect
Cmax ([3]; male, human, in vivo, po, C max): 4.04 ± 1.71 ng/mL
half-life ([3]; male, human, plasma, oral, 5 g, range over RG and BRG groups, read-out: t1/2): 38 to 46 h
AUC(0-t) [3, 4]: 56.9 ± 19.6 ng·h/mL
AUC(0-inf) [3, 4]: 182 ± 94.4 ng·h/mL
Cmax ([3]; male, human, plasma, po, 5 g, plasma, after single oral 5 g BRG, n = 13, mean ± SD, read-out: C max): 3.19 ± 1.13 ng/mL
half-life ([3]; male, human, plasma, po, 5 g, plasma, after single oral 5 g BRG, n = 13, mean ± SD, read-out: T 1/2 (converted)): 38.1 ± 13.5 h
Tmax ([3]; male, human, plasma, po, 5 g, plasma, after single oral 5 g BRG, n = 13, mean ± SD, read-out: T max): 6.92 ± 1.55 h
AUC(0-t) [3, 5]: 73.2 ± 29.8 ng·h/mL
AUC(0-inf) [3, 5]: 257 ± 115 ng·h/mL
half-life ([3]; male, human, plasma, po, 5 g, plasma, after single oral 5 g RG, n = 13, mean ± SD, read-out: T 1/2 (converted)): 45.9 ± 21.9 h
Tmax ([3]; male, human, plasma, po, 5 g, plasma, after single oral 5 g RG, n = 13, mean ± SD, read-out: T max): 7.23 ± 1.92 h

CC(C)=CCC[C@](C)(O[C@@H]1O[C@H](CO)[C@@H](O)[C@H](O)[C@H]1O)[C@H]1CC[C@]2(C)[C@@H]1[C@H](O)C[C@@H]1[C@@]3(C)CC[C@H](O)C(C)(C)[C@@H]3[C@@H](O[C@@H]3O[C@H](CO)[C@@H](O)[C@H](O)[C@H]3O)C[C@]12C [Rg1, ginsenoside Rg1]
detection in the plasma samples ([3]; after oral RG or BRG): not detected

CC(C)=CCC[C@](C)(O)[C@H]1CC[C@]2(C)[C@@H]1[C@H](O)C[C@@H]1[C@@]3(C)CC[C@H](O[C@@H]4O[C@H](CO)[C@@H](O)[C@H](O)[C@H]4O[C@@H]4O[C@H](CO)[C@@H](O)[C@H](O)[C@H]4O)C(C)(C)[C@@H]3CC[C@]12C [Rg3, ginsenoside Rg3]
Freeze-thaw stability, concentration found ([1]; human, 0.6 ng/mL): 97.73 ± 3.53%
Freeze-thaw stability, concentration found ([1]; human, 32 ng/mL): 95.33 ± 2.75%
Short-term stability, concentration found ([1]; human, 19 h, 0.6 ng/mL): 102.32 ± 2.68%
Short-term stability, concentration found ([1]; human, 19 h, 32 ng/mL): 96.32 ± 1.48%
Autosampler stability, concentration found ([1]; human, 34 h, 0.6 ng/mL): 102.95 ± 5.52%
Autosampler stability, concentration found ([1]; human, 34 h, 32 ng/mL): 97.25 ± 1.45%
Long-term stability, concentration found ([1]; human, 50 days, 0.6 ng/mL): 104.15 ± 8.68%
Long-term stability, concentration found ([1]; human, 50 days, 32 ng/mL): 99.84 ± 3.12%
detection in plasma at the initial time point (0 h) of the second treatment period ([3]; in vivo): did not detect
T 1/2 ([3]; male, human, in vivo, po): 5.70 ± 0.73^∗ h
T max ([3]; male, human, in vivo, po): 4.23 ± 1.54 h
half-life ([3]; male, human, in vivo, po, T 1/2): 5.58 ± 3.63 h
Tmax ([3]; male, human, in vivo, po, T max): 3.85 ± 1.28 h
